Measured values from PMC6202246 (Nature chemical biology, 2018).

System: BRD2BD1, BRD2BD2, BRD3BD1, BRD3BD2, BRD4BD1, BRD4BD2 EGFP reporters
Assay: EGFP/mCherry reporter assay across individual BET bromodomains
Assay type: cell-based, human
Settings: BRD2/3/4 BD1 and BD2 reporter cells, 5 h

With `Cc1sc2c(c1C)C(c1ccc(Cl)cc1)=N[C@@H](CC(=O)NCCCCCCCCNC(=O)COc1cccc3c1C(=O)N(C1CCC(=O)NC1=O)C3=O)c1nnc(C)n1-2` (stereo partly shown) [dBET6] the “activity profile across BET bromodomain reporters” value was “activity on most bromodomains”.
